Data taken from PMC10376059, “New NADPH Oxidase 2 Inhibitors Display Potent Activity against Oxidative Stress by Targeting p22^phox-p47^phox Interactions” (Antioxidants, 2023).

How the values were obtained:
MTT cytotoxicity assay = assay type: cell-based, human; details: human; neutrophil-differentiated HL-60 cells, 72 h, 100 µM
Procedure: (§1) To verify the cytotoxicity of the acrylonitrile derivatives, the MTT reduction method was performed. Briefly, HL-60 cells were seeded in a flat-bottomed 96-well plate at a density of 10,000 cells per well. […] In a second series of experiments, cells were incubated under the same conditions but for 72 h. Etoposide was used as a positive control. Ten μL of MTT was added at a final concentration of 0.5 mg/mL, incubated at 37 °C for 4 h, and then solubilized with 10% SDS in 0.1 mM HCl and incubated overnight at 37 °C. Finally, a blue-colored compound (formazan) formation was measured at 570 nm in a multiplate reader (StatFax 4200, Awareness Technology, Inc., Palm City, FL, USA). The viability percentage was obtained as follows: Viability % = [treated cells DO × 100]/[DO cells control].

HL-60 cells = assay: MTT cytotoxicity assay; assay type: cell-based, human; details: 72 h; for cytotoxicity (in words): 0.01 µM to 100 µM, MTT
Procedure: as §1

NADPH oxidase (NOX2) = target: T1, NADPH oxidase (NOX2) (Homo sapiens, UniProt P14598); assay: NADPH oxidase activity by lucigenin chemiluminescence in HL-60 membrane preparations; assay type: biochemical; details: PMA 0.8 µM, compound 50 µM, vs control
T1 construct: HL-60 cells expressed the components of NOX2, including gp91, p22^phox, p47^phox, and p67^phox; endogenous in cells; whole cells in A1, membrane preparations in A3 and A4
T1 sequence (P14598 1-390): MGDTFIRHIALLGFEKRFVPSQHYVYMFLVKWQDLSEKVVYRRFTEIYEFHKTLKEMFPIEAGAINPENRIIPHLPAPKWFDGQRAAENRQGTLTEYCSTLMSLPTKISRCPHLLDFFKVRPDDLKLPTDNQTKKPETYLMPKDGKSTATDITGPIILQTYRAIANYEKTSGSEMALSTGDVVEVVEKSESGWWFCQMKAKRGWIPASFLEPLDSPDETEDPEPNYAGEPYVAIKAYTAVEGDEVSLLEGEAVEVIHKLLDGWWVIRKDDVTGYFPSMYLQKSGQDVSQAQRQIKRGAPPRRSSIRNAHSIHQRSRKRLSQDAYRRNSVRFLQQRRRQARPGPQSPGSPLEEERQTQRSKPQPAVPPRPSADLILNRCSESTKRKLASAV
Procedure: (§2) Neutrophil-differentiated HL-60 cells (2 × 10^6 cells/mL) were incubated at 37 °C in a humid atmosphere with 5% CO2 and 50 μM of the different acrylonitrile compounds, then PMA 0.8 μM was added and incubated for 1 h to induce the activation of the enzyme NADPH oxidase. As a positive inhibition control, VAS2870 (20 μM) was used. Another two controls were performed: one with cells activated by PMA in the presence of DMSO, and the other (NA, non-activated) with cells in the absence of PMA and the acrylonitrile compounds. In 15 mL conical tubes, 5 mL of cell suspension from each treatment and control condition was transferred at 2 × 10^6 cells/mL and centrifuged at 1000 rpm at 4 °C for 10 min. The supernatant was then discarded, and each pellet was re-suspended in 2 mL of a 4% PBS solution with 2 mM EGTA and 0.25 mM PMSF frozen at −80 °C for 10 min. Then each pellet was thawed on ice. […]
The chemiluminescence analysis of lucigenin derivatives was used to determine the activity of NADPH oxidase in a suspension of membrane preparations of HL-60 cells. […] Chemiluminescence was measured for 1 h at 2 min intervals with a Synnergy H1 hybrid luminometer multi-mode microplate reader and GEN5 program (Biotek Instruments, Inc., Winooski, VT, USA). […] The activity was expressed as relative units of luminescence per second, relative to the control.

p47^phox = target: T2, p47^phox (Homo sapiens, UniProt P14598); assay: p47phox translocation from cytosol to membrane (Western blot) in PMA-stimulated HL-60 differentiated cells; assay type: cell-based; details: PMA 0.8 µM, 50 μM
T2 construct: we evaluated p47^phox translocation from the cytosol to the membrane in HL-60 differentiated cells; endogenous in cells; host or cells: neutrophil-differentiated HL-60 cells treated with PMA; membrane and cytosolic fractions obtained by cryo-fracture
T2 sequence (P14598 1-390): T1 sequence (P14598 1-390)
Procedure: as §2, with “ice. After this, the cell suspension was passed through a glass tissue homogenizer (Deltalab®, I.C.T, S.L, La Rioja, Spain) 20 times. The freezing-thawing and homogenization processes were repeated three times. Finally, the homogenate was centrifuged at 15,000 rpm at 4 °C for 15 min. The supernatant (cytosolic fraction) was removed from the pellet (membranes were prepared). A fraction was removed for the determination of total proteins, and the remainder was stored at −80 °C for further analysis.” for “ice.”

Compound | viability at 72 h, 100 µM (MTT cytotoxicity assay) [%] | cytotoxicity (in words) (HL-60 cells) | cytotoxicity (HL-60 cells; 1 µM (corresponding to the IC50 value)) | ROS production, lucigenin chemiluminescence (in words) (NADPH oxidase (NOX2)) | translocation of p47phox to the membrane (in words) (p47^phox)
N#C/C(=C\c1cc(-c2ccccc2)on1)C(=O)c1c[nH]c2ccccc12 [Compound C6] | ~5 | non-cytotoxic | about 55% | significantly reduce ROS production | significantly reduced the translocation of p47^phox to the membrane
N#C/C(=C\c1ccncc1)C(=O)c1c[nH]c2ccccc12 [Compound C14] | – | non-cytotoxic | – | significantly reduce ROS production | –
